Reference: patent US10501473B2, “Fused heterocyclic ring compounds and method of treating retinal disease using same” (THE INDUSTRY & ACADEMIC COOPERATION IN CHUNGNAM NATIONAL …, priority 2014, dated 2019)

What was measured:
[1] = biological target: RIPK1 (receptor-interacting serine/threonine-protein kinase 1) (Homo sapiens (Human), UniProt Q13546); test: RIPK1 inhibitory activity, autophosphorylation of immuno-precipitated RIPK1 with [32P]γ-ATP; assay type: biochemical; conditions: for activity at 100 µM: compound 100 μM, remaining RIPK1 phosphorylation; for inhibition at 100 µM: Table 2, 100 μM
Method: The following experiment was performed to evaluate RIPK1 (receptor-interacting serine/threonine-protein kinase 1) inhibitory activity of the compounds of examples of the invention.
RIPK1 enzyme immuno-precipitated in HEK293 (Human Embryonic Kidney 293) cell lysate was used as kinase. The experiment was performed according to the method described in Cell. 12; 137(6):1112-23(2009). RIPK1 protein was over-expressed in HEK293 cell line, to which lysis buffer (50 mM Tris-Cl [pH 8.0], 150 mM NaCl, 1 mM EDTA, 1% NP-40, 0.4 mM phenylmethylsulfonyl fluoride (PMSF)) was added for cell lysis. Centrifugation was performed at 13,000 rpm for 10 minutes to separate the supernatant. RIPK1 monoclonal antibody (610459, BD Bioscience) and A/G agarose beads (sc-2003, Santa Cruz Biotechnology) were added thereto, followed by immuno-precipitation in a 4° C. rotator for 12 hours.
The immune complex was washed with lysis buffer twice and then washed with kinase assay buffer (20 mM HEPES [pH7.6], 2 mM DTT, 1 mM NaF, 1 mM Na3Vo4, 20 mM β-glycerophosphate, 20 mM PNPP, 20 mM MgCl2, 20 mM MnCl2, 1 mM Benzamidie, and 1 mM EDTA) lastly. Kinase assay buffer and the compound were added to the RIPK1 immuno-precipitate, followed by reaction in a 24° C. constant-temperature water bath for 15 minutes. Additional reaction was induced for 30 minutes at 30° C. after 100 μM of ATP and 10 μCi[^32P] γ-ATP were added thereto. The reaction mixture was washed with kinase assay buffer once, to which protein loading buffer was added, followed by heating at 100° C. for 3 minutes. The reaction mixture was then loaded on 8% SDS-PAGE gel. Radioactive image of the phosphorylated RIPK1 was detected with FLA-7000 (GE healthcare). The image Quant TL program was used for the quantification.

[2] = test system: RGC-5 (rat ganglion cell); test: Retinal nerve protection under oxygen-glucose deprivation (OGD), LDH assay; assay type: cell-based; conditions: RGC-5, OGD 15 hours, compound 20 μM, DMSO control = 100%
Method: The following experiment was performed to evaluate the protective effect of the compounds of examples of the invention on the retinal nerve under oxygen-glucose deprivation condition.
The retinal ganglion cell line RGC-5 (rat ganglion cell) was cultured in DMEM (Dulbecco's modified Eagle's medium) supplemented with 10% FBS (fetal bovine serum) and 1% penicillin/streptomycin. The cells were distributed in a 96-well plate at the density of 8×10^3 cells/well, followed by culture in a 37° C., CO2 incubator for 12 hours. The cells were washed with PBS once and the medium was replaced with glucose free DMEM. The cells were treated with either DMSO (0.1%) alone (control) or with the compounds of examples (20 μM) shown in Table 3, followed by culture in an anaerobic incubator (10% H2, 5% CO2, 85% N2, 37° C., chamber (ThermoForma, USA)) for 15 hours to induce cell death.
The level of cell death was measured by LDH (lactate dehydrogenase, Roche) assay. The LDH assay is a method for measuring the activity of LDH released from the damaged cells into the culture medium. NAD^+ was reduced to NADH and H^+ by LDH, and the bond of tetrazolium salt INT ring was cleaved by diaphorase to form formazan. Absorbance of the formazan was measured at 490 nm by using Victor 3 (PerkinElmer). The absorbance reflects the amount of dead cells.
The level of the control LDH under oxygen-glucose deprivation condition was regarded as 100%, and the level of LDH in the cell group cultured in normal medium (10% FBS, DMEM) for the same time was regarded as 0%. Based on that, the levels of LDH of the cell groups treated with the compounds of the invention under oxygen-glucose deprivation condition were converted into the relative ratio of cell death. The compounds of examples of the invention were treated to wells, each compound for three wells, and then each experiment was performed in triplicate.

[3] = test system: RGC-5 (rat ganglion cell-5); test: Retinal neuron protection under necroptosis inducing (TCZ; TNFα+cycloheximide+zVAD) condition, LDH assay; assay type: cell-based; conditions: RGC-5, TCZ 15 hours, compound 20 μM, DMSO control = 100%
Method: The following experiment was performed to evaluate the retinal neuron protection effect of the compounds of the invention under necroptosis inducing condition.
The retinal ganglion cell line RGC-5 (rat ganglion cell-5) was cultured in DMEM (Dulbecco's modified Eagle's medium) supplemented with 10% FBS (fetal bovine serum) and 1% penicillin/streptomycin. The cells were distributed in a 96-well plate at the density of 8×10^3 cells/well, followed by culture in a 37° C., CO2 incubator for 12 hours. The medium supplemented with TNFα (10 ng/ml), cycloheximide (10 μg/ml), and zVAD (10 μM) (TCZ) was treated with DMSO (0.1%) alone (control) or with the compounds of the invention (20 μM), followed by additional culture in a 37° C., CO2 incubator for 15 hours to induce cell death.
The level of cell death was measured by LDH (lactate dehydrogenase, Roche) assay. The level of the control LDH under TCZ condition was regarded as 100%, and the level of LDH in the cell group cultured in normal medium (10% FBS, DMEM) for the same time was used for the measurement of the relative rate of cell death. The compounds of examples of the invention were treated to wells, each compound for three wells, and then each experiment was performed in triplicate.

Sequence of RIPK1 (receptor-interacting serine/threonine-protein kinase 1) (Q13546 whole entry, species assumed): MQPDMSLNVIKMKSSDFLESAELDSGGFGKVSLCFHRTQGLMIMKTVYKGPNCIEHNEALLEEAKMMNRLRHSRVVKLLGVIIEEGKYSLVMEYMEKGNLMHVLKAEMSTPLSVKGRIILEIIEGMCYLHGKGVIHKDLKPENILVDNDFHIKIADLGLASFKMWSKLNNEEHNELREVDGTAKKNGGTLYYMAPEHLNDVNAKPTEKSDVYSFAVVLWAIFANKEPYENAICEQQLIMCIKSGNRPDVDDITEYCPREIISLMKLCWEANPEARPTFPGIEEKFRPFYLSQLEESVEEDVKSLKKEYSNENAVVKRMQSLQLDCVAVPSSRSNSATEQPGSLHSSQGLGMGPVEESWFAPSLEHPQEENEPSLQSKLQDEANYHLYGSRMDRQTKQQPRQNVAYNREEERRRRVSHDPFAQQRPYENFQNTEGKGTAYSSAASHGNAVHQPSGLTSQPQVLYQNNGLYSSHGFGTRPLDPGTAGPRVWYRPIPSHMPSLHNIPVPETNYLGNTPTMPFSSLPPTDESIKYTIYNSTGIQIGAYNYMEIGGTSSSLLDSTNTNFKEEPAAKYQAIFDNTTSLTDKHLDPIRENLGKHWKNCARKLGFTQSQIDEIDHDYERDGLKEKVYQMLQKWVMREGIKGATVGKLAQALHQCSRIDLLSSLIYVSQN

SMILES	activity at 100 µM [1] [%]	inhibition at 100 µM [1] [%]	Death of retinal nerve cell (%) [2] [%]	Death of retinal nerve cell (%) [3] [%]
O=C(c1cc2cc(Br)ccc2o1)N1CCOCC1 [Example 16, (5-bromobenzofuran-2-yl)(morpholino)methanone]	88 ± 24.7		19.3 ± 1.4	59.4 ± 11.3
COc1ccc2[nH]c(C(=O)N3CCOCC3)cc2c1 [Example 22, (5-methoxy-1H-indole-2-yl)(morpholino)methanone]	43.5 ± 10.6	≥ 50	78.6 ± 13.8	69.5 ± 7.4
COc1ccc2oc(C(=O)N3CCOCC3)cc2c1 [Example 26, (5-methoxybenzofuran-2-yl)(morpholino)methanone]	81.4 ± 29.3		48.6 ± 6.5	75.9 ± 15.1
O=C(c1nc2cc(Br)ccc2[nH]1)N1CCOCC1 [Example 14, (5-bromo-1H-benzo[d]imidazole-2-yl)(morpholino)methanone]	62 ± 6.2		82.1 ± 11.2	81.1 ± 15.2
Cc1ccc2[nH]c(C(=O)N3CCOCC3)cc2c1 [Example 21, (5-methyl-1H-indole-2-yl)(morpholino)methanone]	81 ± 17		64.7 ± 7.1	89.9 ± 19.4
Cn1c(C(=O)N2CCOCC2)cc2ccccc21 [Example 25, (1-methyl-1H-indole-2-yl)(morpholino)methanone]	43	≥ 50	37.0 ± 1.2	64.8 ± 11.2
Cc1ccc2cc(C(=O)N3CCOCC3)oc2c1 [Example 27, (6-methylbenzofuran-2-yl)(morpholino)methanone]	86 ± 17		53.7 ± 9.1	86.1 ± 1.3
O=C(c1cc2c(Br)cnc(Cl)c2s1)N1CCOCC1 [Example 1, (4-bromo-7-chlorothieno[2,3-c]pyridine-2-yl)(morpholino)methanone]	52.5 ± 7.8			79.3 ± 3.2
O=C(c1cc2c(Br)cncc2s1)N1CCOCC1 [Example 3, (4-bromothieno[2,3-c]pyridine-2-yl)(morpholino)methanone]	52 ± 2.8			79.6 ± 3.2
CCN(CC)C(=O)c1cccc2sc(C(=O)N3CCOCC3)cc12 [Example 20, N,N-diethyl-2-(morpholine-4-carbonyl)benzo[b]thiophene-4-carboxamide]	77 ± 12.5		43.6 ± 8.5	
Nc1cccc(-c2cccc3sc(C(=O)N4CCOCC4)cc23)c1 [Example 42, (4-(3-aminophenyl)benzo[b]thiophene-2-yl)(morpholino)methanone]	35.5 ± 3.9	≥ 50	57.2 ± 11.2	

Continued, in another order:

activity at 100 µM [1] [%]	inhibition at 100 µM [1] [%]	SMILES	Death of retinal nerve cell (%) [2] [%]	Death of retinal nerve cell (%) [3] [%]
43 ± 7.1	≥ 50	COc1ccc(-c2cccc3sc(C(=O)N4CCOCC4)cc23)cn1 [Example 55, (4-(6-methoxypyridine-3-yl)benzo[b]thiophene-2-yl)(morpholino)methanone]	47.2 ± 12.4	
22.5 ± 16.3	≥ 50	CN(c1ccc(F)cc1)c1cccc2sc(C(=O)N3CCOCC3)cc12 [Example 69, (4-((4-fluorophenyl)(methyl)amino)benzo[b]thiophene-2-yl)(morpholino)methanone]	69.4 ± 10.9	
58.5 ± 17.7		NC(=O)c1ccc(-c2cccc3sc(C(=O)N4CCOCC4)cc23)cc1 [Example 43, 4-(2-(morpholine-4-carbonyl)benzo[b]thiophene-4-yl)benzamide]	62.3 ± 1.7	
11 ± 5.7		O=C(c1cc2c(-c3ccc(F)cc3)cccc2s1)N1CCOC1 [Example 46, (4-(4-fluorophenyl)benzo[b]thiophene-2-yl) (oxazolidine-3-yl)methanone]	55.4 ± 12.8	
22 ± 15.6	≥ 50	O=C(c1cc2c(CCc3ccc(F)cc3)cccc2s1)N1CCOCC1 [Example 60, (4-(4-fluorophenethyl)benzo[b]thiophene-2-yl)(morpholino)methanone]	89.8 ± 10.7	
21 ± 7.1	≥ 50	O=C(c1cc2c(Oc3ccc(F)cc3)cccc2s1)N1CCOCC1 [Example 59, (4-(4-fluorophenoxy)benzo[b]thiophene-2-yl)(morpholino)methanone]	59.5 ± 14.7	
83.6 ± 12.7		COS(=O)c1ccc(-c2cccc3sc(C(=O)N4CCOCC4)cc23)cc1 (stereo not shown) [Example 64, methyl 4-(2-(morpholine-4-carbonyl)benzo[b]thiophene-4-yl)benzene sulfinate]	63.0 ± 17.8	
22.5 ± 12	≥ 50	O=C(c1cc2c(OCc3ccc(F)cc3)cccc2s1)N1CCOCC1 [Example 61, (4-(4-fluorobenzyloxy)benzo[b]thiophene-2-yl)(morpholino)methanone]	53.5 ± 14.5	
54.5 ± 37.5		O=C(c1cc2c(Cc3cccc(F)c3)cccc2s1)N1CCOCC1 [Example 56, (4-(3-fluorobenzyl)benzo[b]thiophene-2-yl)(morpholino)methanone]	81.0 ± 16.1	
47.5 ± 2.1	≥ 50	CSc1ccc(-c2cccc3sc(C(=O)N4CCOCC4)cc23)cc1 [Example 50, (4-(4-(methylthio)phenyl)benzo[b]thiophene-2-yl)(morpholino)methanone]	57.2 ± 8.1	
54.5 ± 37.5		O=C(c1cc2c(-c3ccc(Br)cc3)cccc2s1)N1CCOCC1 [Example 54, (4-(4-bromophenyl)benzo[b]thiophene-2-yl)(morpholino)methanone]	74.3 ± 5.1	
86.7 ± 34.6		O=C(c1cc2c(-c3ccc(OC(F)(F)F)cc3)cccc2s1)N1CCOCC1 [Example 45, morpholino(4-(4-(trifluoromethoxy)phenyl)benzo[b]thiophene-2-yl)methanone]	89.4 ± 14.0	
82.5 ± 5		O=C(c1cc2c(S(=O)(=O)Cc3ccc(F)cc3)cccc2s1)N1CCOCC1 [Example 62, (4-(4-fluorobenzylsulfonyl)benzo[b]thiophene-2-yl)(morpholino)methanone]	59.3 ± 16.3	
